Laboratory results published in US9199948B2, “1,3-benzoxazol-2(3H)-ones and their use as medicaments and cosmetics” (DR. AUGUST WOLFF GMBH & CO. KG ARZNEIMITTEL, priority 2012, dated 2015).

Test system: Arachidonoylethanolamide Transport (AEAT) in U937 cells
Experiment: Cellular uptake of [3H]-AEA (inhibition of arachidonoylethanolamide transport, AEAT)
Type: cell-based
Settings: Homo sapiens, U-937, 100 nM AEA, 15 min pre-incubation, 15 min uptake at 37° C.
Procedure: C. Cellular Uptake of [^3H]-AEA
Human lymphoma U937 cells were grown in RPMI 1640 medium (Invitrogen, Basel, Switzerland) supplemented with 10% fetal bovine serum, […] fungizone (amphotericin B), 100 units/ml penicillin, 100 µg/ml streptomycin, and 2 mM L-glutamine (all from Invitrogen) and selected for the cellular AEA uptake assay. 2.5×10^6 cells were collected and suspended in 250 μl of RPMI 1640 medium (Invitrogen, Basel, Switzerland) at 37° C. using glass silanized vials. Cells were pre-incubated 15 min at 37° C. in presence of test compounds in a concentration range of 10^−11−10^−5 M or in presence of the same amount (5 μl) of vehicle control (DMSO). Then a mixture of 0.5 nM [^3H]-AEA (60 Ci/mmol) (American Radiolabeled Chemicals, Inc., San Louis, Mo., US) and 99.5 nM of nonradioactive AEA (Tocris Cookson Ltd., Bristol, UK) resulting in a final concentration of 100 nM AEA was added and samples were incubated at 37° C. for another 15 minutes. […] Radioactivity was measured using a Perkin Elmer 1450 Microbeta TRILUX liquid scintillation counter. Results were expressed as % of AEA uptake versus cells treated with solvent and the EC50 and IC50 values were calculated from the sigmoidal curves, which were generated using the GraphPad Prism 5.0 (GraphPad Software, San Diego, Calif., US).

| SMILES | EC50 [nM] |
| --- | --- |
| CCCCCCC/C=C/C=C/CNC(=O)c1ccc2oc(=O)[nH]c2c1 [Example 4] | 146 |
| Cn1c(=O)oc2ccc(NC(=O)/C=C/C=C/CCc3ccccc3)cc21 [Example 10] | 112 |
